Data on 16 compounds can be found in patent US20230167118A1, “DEGRADATION OF BRUTON'S TYROSINE KINASE (BTK) BY CONJUGATION OF BTK INIDBITORS WITH E3 LIGASE LIGAND AND METHODS OF USE” (BEIGENE, LTD., priority 2020, published 2023).

pIC50: −log10 of the molar value. Bounds are passed on as bounds.

One assay concerns HEK-293 cells. Kind of assay: HEK-293 Cytotoxicity Assay (CellTiter-Glo). The assay is classed as cell-based. Conditions: Homo sapiens, HEK293, 72 h incubation, CellTiter-Glo luminescence. In outline:
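HEK-293 cells treated 72 h with 8 concentrations (4-fold dilutions, 0.2% DMSO final). Viability read by CellTiter-Glo luminescence; IC50 from four-parameter logistic fit of % inhibition.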
In general terms: In ATP-based viability assays light output follows the ATP content of the culture.

The target of another assay is T1, BTK (Homo sapiens, UniProt Q06187).
T1 construct: High control=Cell group with added DMSO and without compound, indicating microplate readings without BTK degradation; endogenous in cells; host or cells: TMD-8 cells
The assay is described as follows: Cell Degradation: BTK degradation in TMD-8 cells, HTRF assay. Conditions: 6 h treatment, IC50 (DC50) of BTK degradation. The assay is classed as cell-based. In outline:
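TMD-8 cells treated 6 h with 8-dose 6-fold dilutions in 0.2% DMSO, then lysed and BTK quantified by HTRF (665/620 nm). Degradation % normalised to high/low controls; DC50 from four-parameter fit, Dmax as maximal degradation.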

T1 sequence (Q06187 whole entry): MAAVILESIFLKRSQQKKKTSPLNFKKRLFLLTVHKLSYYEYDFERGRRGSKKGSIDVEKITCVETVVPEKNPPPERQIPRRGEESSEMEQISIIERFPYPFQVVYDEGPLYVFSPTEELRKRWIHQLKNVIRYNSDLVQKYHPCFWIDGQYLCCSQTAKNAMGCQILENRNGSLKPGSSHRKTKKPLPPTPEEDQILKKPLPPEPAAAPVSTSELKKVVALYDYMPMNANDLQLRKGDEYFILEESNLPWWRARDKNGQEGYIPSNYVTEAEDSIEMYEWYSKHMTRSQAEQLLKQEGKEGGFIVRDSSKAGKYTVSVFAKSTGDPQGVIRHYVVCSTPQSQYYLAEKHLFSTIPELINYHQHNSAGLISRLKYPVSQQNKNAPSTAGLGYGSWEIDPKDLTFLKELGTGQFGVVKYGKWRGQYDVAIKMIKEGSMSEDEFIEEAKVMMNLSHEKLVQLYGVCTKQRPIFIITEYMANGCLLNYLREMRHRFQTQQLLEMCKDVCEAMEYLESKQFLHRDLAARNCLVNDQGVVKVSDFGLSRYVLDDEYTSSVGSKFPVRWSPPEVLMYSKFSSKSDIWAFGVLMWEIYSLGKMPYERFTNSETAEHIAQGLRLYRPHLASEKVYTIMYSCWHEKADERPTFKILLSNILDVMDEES

A word on the pIC50: it is the IC50 on a negative log10 scale, so that one unit is a factor of ten. High values mean a low IC50, low ones a high IC50. As usually defined, the DC50 is the concentration giving 50% degradation. A lower DC50 goes with degradation at low concentration. In turn, `Cc1cc(-c2ncnc3[nH]c(-c4ccc(N5CCN(CC6CCN(c7ccc(N8CCC(=O)NC8=O)cc7)CC6)CC5)nc4)cc23)ccc1[C@@H](C)NC(=O)c1cc(C(C)(C)C)on1` [Example 117, (R)-5-(tert-butyl)-N-(1-(4-(6-(6-(4-((1-(4-(2,4-dioxotetrahydropyrimidin-1(2H)-yl)phenyl)piperidin-4-yl)methyl)piperazin-1-yl)pyridin-3-yl)-7H-pyrrolo[2,3-d]pyrimidin-4-yl)-2-methylphenyl)ethyl)isoxazole-3-carboxamide] gave a pIC50 in the assay on HEK-293 cells of under 5.00. The same compound registered a 50% degradation concentration (DC50) on BTK of 3.72 nM.

The compound `Cc1cc(-c2ncnc3[nH]c(-c4c(C)nn(C5CCN(CC6CCN(c7ccc(N8CCC(=O)NC8=O)cc7)CC6)CC5)c4C)cc23)ccc1[C@@H](C)NC(=O)c1cn(C(C)(C)C)nn1` [Example 121, (R)-1-(tert-butyl)-N-(1-(4-(6-(1-(1-((1-(4-(2,4-dioxotetrahydropyrimidin-1(2H)-yl)phenyl)piperidin-4-yl)methyl)piperidin-4-yl)-3,5-dimethyl-1H-pyrazol-4-yl)-7H-pyrrolo[2,3-d]pyrimidin-4-yl)-2-methylphenyl)ethyl)-1H-1,2,3-triazole-4-carboxamide] had a pIC50 with HEK-293 cells of under 5.00. Further, on BTK, half-maximal degradation (DC50) was put at 0.23 nM.

`Cc1cc(-c2ncnc3[nH]c(-c4ccc(N5CCN(CC6CCN(c7ccc(N8CCC(=O)NC8=O)cc7)CC6)CC5)cc4)cc23)ccc1CNC(=O)c1cnc(C(C)(C)C)s1` [Example 47, 2-(tert-butyl)-N-(4-(6-(4-(4-((1-(4-(2,4-dioxotetrahydropyrimidin-1(2H)-yl)phenyl)piperidin-4-yl)methyl)piperazin-1-yl)phenyl)-7H-pyrrolo[2,3-d]pyrimidin-4-yl)-2-methylbenzyl)thiazole-5-carboxamide] gave a pIC50 in the assay with HEK-293 cells of under 5.00. At BTK, this compound displayed a DC50 of 1.8 nM.

In turn, `C[C@@H](NC(=O)c1nc(C(C)(C)C)no1)c1ccc(-c2ncnc3[nH]c(-c4ccc(N5CCN(CC6CCN(c7ccc(N8CCC(=O)NC8=O)cc7)CC6)CC5)cc4)cc23)cc1CO` [Example 74] gave a negative logarithm of the IC50 (pIC50) with HEK-293 cells of under 5.00. The compound further gave a DC50 on BTK of 0.4 nM.

In turn, `Cc1cc(-c2ncnc3[nH]c(-c4ccc(N5CCN(CC6CCN(c7ccc(C8CCC(=O)NC8=O)cc7)CC6)CC5)cc4)cc23)ccc1[C@@H](C)NC(=O)c1nc(C(C)(C)C)no1` (stereo partly drawn) [Example 55, (R)-3-(tert-butyl)-N-(1-(4-(6-(4-(4-((1-(4-(2,6-dioxopiperidin-3-yl)phenyl)piperidin-4-yl)methyl)piperazin-1-yl)phenyl)-7H-pyrrolo[2,3-d]pyrimidin-4-yl)-2-methylphenyl)ethyl)-1,2,4-oxadiazole-5-carboxamide] gave a negative-log IC50 (pIC50) in the assay with HEK-293 cells of under 5.00. Further, it took 3.2 nM to reach half-maximal degradation at BTK (DC50).

In turn, `Cc1cc(-c2ncnc3[nH]c(-c4ccc(N5CCN(CC6CCN(c7ccc(N8CCC(=O)NC8=O)c(C)c7)CC6)CC5)cc4)nc23)ccc1[C@@H](C)NC(=O)c1nc(C(C)(C)C)no1` [Example 67, (R)-3-(tert-butyl)-N-(1-(4-(8-(4-(4-((1-(4-(2,4-dioxotetrahydropyrimidin-1(2H)-yl)-3-methylphenyl)piperidin-4-yl)methyl)piperazin-1-yl)phenyl)-9H-purin-6-yl)-2-methylphenyl)ethyl)-1,2,4-oxadiazole-5-carboxamide] showed a pIC50 in the assay on HEK-293 cells of under 5.00. Further, the DC50 on BTK worked out at 0.69 nM.

In turn, `Cc1cc(-c2ncnc3[nH]c(-c4ccc(OC5CCN(CC6CCN(c7ccc(N8CCC(=O)NC8=O)cc7)CC6)CC5)cc4)cc23)ccc1CNC(=O)c1nc(C(C)(C)C)no1` [Example 49, 3-(tert-butyl)-N-(4-(6-(4-((1-((1-(4-(2,4-dioxotetrahydropyrimidin-1(2H)-yl)phenyl)piperidin-4-yl)methyl)piperidin-4-yl)oxy)phenyl)-7H-pyrrolo[2,3-d]pyrimidin-4-yl)-2-methylbenzyl)-1,2,4-oxadiazole-5-carboxamide] showed a pIC50 in the assay on HEK-293 cells of under 5.00. Also, at BTK, half-maximal degradation (DC50) was put at 1.3 nM.

Take `Cc1nn(C2CCN(CC3CCN(c4ccc(N5CCC(=O)NC5=O)cc4)CC3)CC2)c(C)c1-c1cc2c(-c3ccc([C@@H](C)NC(=O)c4nc(C(C)(C)C)no4)c(CO)c3)ncnc2[nH]1` [Example 138, (R)-3-(tert-butyl)-N-(1-(4-(6-(1-(1-((1-(4-(2,4-dioxotetrahydropyrimidin-1(2H)-yl)phenyl)piperidin-4-yl)methyl)piperidin-4-yl)-3,5-dimethyl-1H-pyrazol-4-yl)-7H-pyrrolo[2,3-d]pyrimidin-4-yl)-2-(hydroxymethyl)phenyl)ethyl)-1,2,4-oxadiazole-5-carboxamide]: the pIC50 in the assay with HEK-293 cells is 5.73. On BTK, this compound displayed a DC50 of 0.29 nM.

In the assay with HEK-293 cells, `Cc1cc(-c2ncnc3[nH]c(-c4ccc(N5CCN(CC6CCN(c7ccc(N8CCC(=O)NC8=O)c(F)c7)CC6)CC5)cc4)cc23)ccc1[C@@H](C)NC(=O)c1nc(C(C)(C)C)no1` [Example 111, (R)-3-(tert-butyl)-N-(1-(4-(6-(4-(4-((1-(4-(2,4-dioxotetrahydropyrimidin-1(2H)-yl)-3-fluorophenyl)piperidin-4-yl)methyl)piperazin-1-yl)phenyl)-7H-pyrrolo[2,3-d]pyrimidin-4-yl)-2-methylpheyl)ethyl)-1,2,4-oxadiazole-5-carboxamide] had a negative logarithm of the IC50 (pIC50) of under 5.00. The compound also showed a DC50 at BTK of 2.3 nM.

As to `Cc1cc(-c2ncnc3[nH]c(-c4ccc(N5CCN(CC6CCN(c7ccc(N8CCC(=O)NC8=O)cc7)CC6)CC5)cn4)cc23)ccc1[C@@H](C)NC(=O)c1noc(C2(C)CC2)n1` [Example 124, (R)-N-(1-(4-(6-(5-(4-((1-(4-(2,4-dioxotetrahydropyrimidin-1(2H)-yl)phenyl)piperidin-4-yl)methyl)piperazin-1-yl)pyridin-2-yl)-7H-pyrrolo[2,3-d]pyrimidin-4-yl)-2-methylphenyl)ethyl)-5-(1-methylcyclopropyl)-1,2,4-oxadiazole-3-carboxamide], the negative logarithm of the IC50 (pIC50) in the assay on HEK-293 cells is under 5.00. Besides, the half-maximal degradation concentration (DC50) at BTK is 1.01 nM.

In the case of `Cc1cc(-c2ncnc3[nH]c(-c4ccc(C5CCN(CC6CCN(c7ccc(N8CCC(=O)NC8=O)cc7)CC6)C5)cn4)cc23)ccc1[C@@H](C)NC(=O)c1nc(C(C)(C)C)no1` (stereo partly drawn) [Example 176, 3-(tert-butyl)-N-((1R)-1-(4-(6-(5-(1-((1-(4-(2,4-dioxotetrahydropyrimidin-1(2H)-yl)phenyl)piperidin-4-yl)methyl)pyrrolidin-3-yl)pyridin-2-yl)-7H-pyrrolo[2,3-d]pyrimidin-4-yl)-2-methylphenyl)ethyl)-1,2,4-oxadiazole-5-carboxamide], the negative-log IC50 (pIC50) with HEK-293 cells was under 5.00. For the same compound, it took 1.1 nM to reach half-maximal degradation at BTK (DC50).

`Cc1cc(-c2ncnc3[nH]c(-c4ccc(C5(F)CN(CC6CCN(c7ccc(N8CCC(=O)NC8=O)cc7)CC6)C5)cn4)cc23)ccc1[C@@H](C)NC(=O)c1nc(C(C)(C)C)no1` [Example 173, (R)-3-(tert-butyl)-N-(1-(4-(6-(5-(1-((1-(4-(2,4-dioxotetrahydropyrimidin-1(2H)-yl)phenyl)piperidin-4-yl)methyl)-3-fluoroazetidin-3-yl)pyridin-2-yl)-7H-pyrrolo[2,3-d]pyrimidin-4-yl)-2-methylphenyl)ethyl)-1,2,4-oxadiazole-5-carboxamide] showed a pIC50 in the assay on HEK-293 cells of under 5.00. The compound also came in with a 50% degradation concentration (DC50) on BTK of 0.98 nM.

As to `C[C@@H](NC(=O)c1noc(C(C)(C)C)n1)c1ccc(-c2ncnc3[nH]c(-c4ccc(N5CCN(CC6CCN(c7ccc(N8CCC(=O)NC8=O)cc7)CC6)CC5)nc4)cc23)cc1CO` [Example 144, (R)-5-(tert-butyl)-N-(1-(4-(6-(6-(4-((1-(4-(2,4-dioxotetrahydropyrimidin-1(2H)-yl)phenyl)piperidin-4-yl)methyl)piperazin-1-yl)pyridin-3-yl)-7H-pyrrolo[2,3-d]pyrimidin-4-yl)-2-(hydroxymethyl)phenyl)ethyl)-1,2,4-oxadiazole-3-carboxamide], the pIC50 in the assay on HEK-293 cells was under 5.00. The compound further gave a DC50 on BTK of 0.26 nM.

In the assay with HEK-293 cells, `Cc1cc(-c2ncnc3[nH]c(-c4ccc(N5CCN(CC6CCN(c7ccc(N8CCC(=O)NC8=O)cc7)CC6)CC5)cn4)cc23)ccc1[C@@H](C)NC(=O)c1nc(C(C)(C)C)no1` [Example 19, (R)-3-(tert-butyl)-N-(1-(4-(6-(5-(4-((1-(4-(2,4-dioxotetrahydropyrimidin-1(2H)-yl)phenyl)piperidin-4-yl)methyl)piperazin-1-yl)pyridin-2-yl)-7H-pyrrolo[2,3-d]pyrimidin-4-yl)-2-methylphenyl)ethyl)-1,2,4-oxadiazole-5-carboxamide] had a pIC50 of under 5.00. At BTK, this compound returned a 50% degradation concentration (DC50) of 0.72 nM.

In the assay on HEK-293 cells, `C[C@@H](NC(=O)c1nc(C(C)(C)C)no1)c1ccc(-c2ncnc3[nH]c(-c4ccc(N5CCN(CC6CCN(c7ccc(N8CCC(=O)NC8=O)cc7)CC6)CC5)cn4)cc23)cc1CO` [Example 170, (R)-3-(tert-butyl)-N-(1-(4-(6-(5-(4-((1-(4-(2,4-dioxotetrahydropyrimidin-1(2H)-yl)phenyl)piperidin-4-yl)methyl)piperazin-1-yl)pyridin-2-yl)-7H-pyrrolo[2,3-d]pyrimidin-4-yl)-2-(hydroxymethyl)phenyl)ethyl)-1,2,4-oxadiazole-5-carboxamide] had a negative logarithm of the IC50 (pIC50) of under 5.00. Moreover, on BTK, it took 0.17 nM to reach half-maximal degradation (DC50).

As for `Cc1cc(-c2ncnc3[nH]c(-c4cnc(N5CCN(CC6CCN(c7ccc(N8CCC(=O)NC8=O)cc7)CC6)CC5)nc4)cc23)ccc1[C@@H](C)NC(=O)c1nc(C(C)(C)C)no1` [Example 160, (R)-3-(tert-butyl)-N-(1-(4-(6-(2-(4-((1-(4-(2,4-dioxotetrahydropyrimidin-1(2H)-yl)phenyl)piperidin-4-yl)methyl)piperazin-1-yl)pyrimidin-5-yl)-7H-pyrrolo[2,3-d]pyrimidin-4-yl)-2-methylphenyl)ethyl)-1,2,4-oxadiazole-5-carboxamide], the pIC50 in the assay with HEK-293 cells was under 5.00. For the same compound, the DC50 at BTK came to 1.25 nM.
